Assay results published in ChEMBL document CHEMBL3885861, “Open TG-GATES”.

Organism: Rattus norvegicus
Test: Open TG-GATES - Regimen: Daily Repeat
Assay type: toxicity, organism-based, Sprague-Dawley
Set-up: regimen Daily Repeat, gender Male, age 6 weeks
Details: in vivo, po, 1000 mg/kg, route gavage, dose level High; for APTT / Bas / Eos / Fbg / Hb / Ht / Lym / MCH / MCHC / MCV / Mono / Neu / PT / Plat / RBC / Ret / WBC: tissue Blood
[1] = 72 h, tissue Kidney, time 3 day
[2] = 72 h, tissue Plasma, time 3 day

For `CN/C(=N/CCSCc1nc[nH]c1C)NC#N` [CIMETIDINE], the TERMINAL_BW (72 h, time 3 day) was 228.7 g, the APTT (72 h, time 3 day) was 18.9 s and the Bas (72 h, time 3 day) was 0%. The Eos (72 h, time 3 day) was 1%, the Fbg (72 h, time 3 day) was 228.6 mg/dL and the Hb (72 h, time 3 day) was 13.1 g/dL. It also gave a Ht (72 h, time 3 day) of 38.7%, a Lym (72 h, time 3 day) of 80.8% and an MCH (72 h, time 3 day) of 21.1 pg. For the same compound, the MCHC (72 h, time 3 day) was 33.8%, the MCV (72 h, time 3 day) was 62.3 fL and the Mono (72 h, time 3 day) was 2.6%. It also gave a Neu (72 h, time 3 day) of 14.8%, a PT (72 h, time 3 day) of 12.7 s and a Plat (72 h, time 3 day) of 135 x10_4/uL. It also gave an RBC (72 h, time 3 day) of 620.4 x10_4/ul, a Ret (72 h, time 3 day) of 5.4% and a WBC (72 h, time 3 day) of 96.4 x10_2/uL. The KIDNEY_L [1] was 1 g, the KIDNEY_R [1] was 1 g and the KIDNEY_TOTAL [1] was 2 g. It also gave an LIVER (72 h, tissue Liver, time 3 day) of 11.5 g, an A/G [2] of 1.6 and an ALP [2] of 1004 IU/L. The ALT [2] was 40 IU/L, the AST [2] was 74 IU/L and the BUN [2] was 16.2 mg/dL. For the same compound, the CRE [2] was 0.4 mg/dL, the Ca [2] was 11 mg/dL and the Cl [2] was 102.8 meq/L. For the same compound, the DBIL [2] was 0.1 mg/dL, the GLC [2] was 201.6 mg/dL and the IP [2] was 7 mg/dL. For the same compound, the K [2] was 3.8 meq/L, the LDH [2] was 190.8 IU/L and the Na [2] was 140.8 meq/L. For the same compound, the PL [2] was 156.6 mg/dL, the RALB [2] was 3.4 g/dL and the TBIL [2] was 0.2 mg/dL. It also gave a TC [2] of 79.8 mg/dL, a TG [2] of 118.6 mg/dL and a TP [2] of 5.5 g/dL. For the same compound, the gamma-GTP [2] was 1.2 IU/L, the TERMINAL_BW ([…], time 7 day) was 263.6 g and the TERMINAL_BW ([…], time 14 day) was 302.5 g. It also gave a TERMINAL_BW ([…], time 28 day) of 396.8 g, an APTT ([…], time 7 day) of 16.9 s and a Bas ([…], time 7 day) of 0%. It also gave an Eos ([…], time 7 day) of 1%, a Fbg ([…], time 7 day) of 235.6 mg/dL and a Hb ([…], time 7 day) of 13.6 g/dL. For the same compound, the Ht ([…], time 7 day) was 40.7%, the Lym ([…], time 7 day) was 81% and the MCH ([…], time 7 day) was 21.1 pg. It also gave an MCHC ([…], time 7 day) of 33.5%, an MCV ([…], time 7 day) of 62.9 fL and a Mono ([…], time 7 day) of 2.6%. It also gave a Neu ([…], time 7 day) of 14.4%, a PT ([…], time 7 day) of 12.6 s and a Plat ([…], time 7 day) of 121.2 x10_4/uL. The RBC ([…], time 7 day) was 646.4 x10_4/ul, the Ret ([…], time 7 day) was 5% and the WBC ([…], time 7 day) was 94.8 x10_2/uL. For the same compound, the APTT ([…], time 14 day) was 20.1 s, the Bas ([…], time 14 day) was 0% and the Eos ([…], time 14 day) was 1%. For the same compound, the Fbg ([…], time 14 day) was 225.8 mg/dL, the Hb ([…], time 14 day) was 14.2 g/dL and the Ht ([…], time 14 day) was 43.3%. It also gave a Lym ([…], time 14 day) of 80.8%, an MCH ([…], time 14 day) of 19.5 pg and an MCHC ([…], time 14 day) of 32.6%. It also gave an MCV ([…], time 14 day) of 59.7 fL, a Mono ([…], time 14 day) of 2.2% and a Neu ([…], time 14 day) of 15.4%. For the same compound, the PT ([…], time 14 day) was 12.9 s, the Plat ([…], time 14 day) was 128 x10_4/uL and the RBC ([…], time 14 day) was 726.4 x10_4/ul. For the same compound, the Ret ([…], time 14 day) was 4.3%, the WBC ([…], time 14 day) was 110.4 x10_2/uL and the APTT ([…], time 28 day) was 19.4 s. It also gave a Bas ([…], time 28 day) of 0%, an Eos ([…], time 28 day) of 1.6% and a Fbg ([…], time 28 day) of 216.2 mg/dL. For the same compound, the Hb ([…], time 28 day) was 14.9 g/dL and the Ht ([…], time 28 day) was 43.2%.
